In PubChem BioAssay (NCI):
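Following 48 hours of exposure in 96-well plates, responses at five concentrations were used to interpolate endpoints linearly. The concentration for 50% growth inhibition is given as GI50. TGI is the concentration that stops growth completely.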

Columns and labels:
Experiment in all cases: NCI anticancer screen, dose series, 48 h
A498 renal = test system: A498 renal
EKVX NSCLC = test system: EKVX NSCLC
HOP-92 NSCLC = test system: HOP-92 NSCLC
MALME-3M melanoma = test system: MALME-3M melanoma
MCF7 breast = test system: MCF7 breast
NCI-H522 lung = test system: NCI-H522 lung
OVCAR-5 ovarian = test system: OVCAR-5 ovarian
SN12C renal = test system: SN12C renal
UO-31 renal = test system: UO-31 renal
OVCAR-3 ovarian = test system: OVCAR-3 ovarian

SMILES	TGI (A498 renal) [µM]	TGI (EKVX NSCLC) [µM]	TGI (HOP-92 NSCLC) [µM]	TGI (MALME-3M melanoma) [µM]	TGI (MCF7 breast) [µM]	TGI (NCI-H522 lung) [µM]	TGI (OVCAR-5 ovarian) [µM]	TGI (SN12C renal) [µM]	TGI (UO-31 renal) [µM]	TGI (OVCAR-3 ovarian) [µM]	GI50 (MALME-3M melanoma) [µM]	GI50 (A498 renal) [µM]	GI50 (EKVX NSCLC) [µM]	GI50 (MCF7 breast) [µM]	GI50 (NCI-H522 lung) [µM]	GI50 (OVCAR-3 ovarian) [µM]	GI50 (OVCAR-5 ovarian) [µM]	GI50 (SN12C renal) [µM]	GI50 (UO-31 renal) [µM]	GI50 (HOP-92 NSCLC) [µM]
COCOc1ccc(C(=O)C(C)c2ccc(OCOC)cc2OCOC)c(O)c1 (centres undefined)	> 100	> 100	> 100	> 100	> 100	> 100	> 100	> 100	> 100											
CCOC(=O)CCCn1nnc(C(=O)OCC)c1C(=O)OCC		> 100	> 100	> 100	> 100			> 100	> 100											
C=CCC1(O)c2ccccc2C(=O)c2c(O)ccc(O)c21 (centres undefined)	25.8	57	41.1	28.8	26.3	8.11	60.4	56.4	52.6	> 57.6										
S=c1sc2c(Cl)ncnc2n1-c1ccccc1	30.9	31.5	34.3	23.9		3.8	53.8	29.4	32.7	28.9										
C=C(C)[C@@]1(O)O[C@H]2C[C@@]3(C)OC(=CC3=O)/C(C)=C\[C@@H]3OC(=O)[C@@]1(C)[C@H]32		> 65.1	41.3	> 100	29.1	15.6	19.7	34.9	57	34.2										
C/C=C/[C@@]1(OC(=O)c2ccccc2)C[C@@H]2CCCC[C@@H]21		31.7		35.3	33.3	29.9	30.8	36.7	22.9											
CC1(C)O[C@H]2Cn3c(c(C#N)c4ccccc43)[C@H]2O1		> 100	> 100	> 100	> 100	> 100	> 100	> 100	> 100	> 100										
CN(C)c1nc2sc3c(c2c(=O)o1)CCCC3	66.8	> 100	> 100	> 100	> 100	> 100	> 100	> 100	> 100											
O=C(CP(c1ccccc1)c1ccccc1)c1cccc(C(=O)CP(c2ccccc2)c2ccccc2)c1		> 100			> 100		> 100	> 100	50.8											
C1CC2=C(C1)[Se]C(=C1Sc3nsnc3S1)[Se]2		> 100	> 100	> 100	> 100	> 100	> 100	> 100	> 100	> 100										
O=C(COc1ccc(OCC(=O)N2C(=O)CC(=O)N(c3ccccc3)C2=S)cc1)N1C(=O)CC(=O)N(c2ccccc2)C1=S	> 100	> 100	> 100	> 100	> 100	> 100	> 100	> 100	> 100											
COc1cc(/C=C/C(=O)OCC23CC[C@@]4(C(=O)O)CCC(C)[C@H](C)C4C2=CCC2[C@@]4(C)CC[C@H](O)C(C)(C)C4CC[C@]23C)ccc1O (some centres undefined)	68.5	33.1		27.5	48.1	31.2	46.4	67.8		14.3										
CO/C(=N\N=C\c1cc(OC)ccc1OC)c1ccncc1	> 10			> 10	> 10		> 10	> 10	> 10											
CCCC(=O)O	10400	> 18700	14200	> 18700		> 18700	> 18700	> 18700	10200	> 18700	3490									
O=C(Nc1cccc2ccccc12)Oc1ccccc1C1CCCCC1	31.5	65.9	30.7	35.1			32.1	30.1	34.6	39.5										
O=C(O)[C@H]1[C@@H](C2CCCCC2)O[C@@H](C2CCCCC2)O[C@H]1C(F)(F)F	35.9	43.1	61.3	73.3		> 100	47.4	38.5	66.2	39										
COc1ccc2oc(=N)c(C(=O)Nc3cccc4ccccc34)cc2c1	39.2	> 100		49.8	63.9		> 100	> 100	30.5	30.8										
CC(=O)NC1C(OCc2ccccc2)OC(CO)C(O)C1OCC(=O)NC(C)C(=O)NC(CCC(=O)NCCCCNc1ccc([N+](=O)[O-])c2[nH]c3ccccc3c(=O)c12)C(N)=O (centres undefined)	> 100	> 100	> 100	> 100	> 100		> 100	> 100	> 100	> 100										
CCC(C)[C@@H](NCc1ccccc1)[C@H](OCc1ccccc1)[C@@H]1COC(C)(C)O1 (some centres undefined)		42.7	31.4	45.8	44.4		90.8	49	41.3	> 100										
O=C1N[C@H]2c3c(Cl)sc(Cl)c3/C(=N/O)[C@H]2O1	> 100	> 100		> 100	> 100		> 100	> 100	> 100	> 100										
O=C(CSc1nnc(-c2ccc(N=Cc3ccc(Cl)cc3)cc2)o1)Nc1ccccc1Cl		> 100		> 100		> 100			> 100											
O=C(O)CCCl			> 5000	4970		> 5000	> 5000	> 5000	> 5000											
CCOC(=O)c1ccc(N=NN(C)C(=O)C(C)N)cc1 (centres undefined)		> 100	> 100	> 100	> 100	> 100	> 100	> 100	> 100	> 100										
COC(=O)c1cn(CCCC(=O)O)nn1		> 100	> 100	> 100	> 100			> 100	> 100											

SMILES	TGI (A498 renal) [µM]	TGI (EKVX NSCLC) [µM]	TGI (HOP-92 NSCLC) [µM]	TGI (MALME-3M melanoma) [µM]	TGI (MCF7 breast) [µM]	TGI (NCI-H522 lung) [µM]	TGI (OVCAR-5 ovarian) [µM]	TGI (SN12C renal) [µM]	TGI (UO-31 renal) [µM]	TGI (OVCAR-3 ovarian) [µM]	GI50 (MALME-3M melanoma) [µM]	GI50 (A498 renal) [µM]	GI50 (EKVX NSCLC) [µM]	GI50 (MCF7 breast) [µM]	GI50 (NCI-H522 lung) [µM]	GI50 (OVCAR-3 ovarian) [µM]	GI50 (OVCAR-5 ovarian) [µM]	GI50 (SN12C renal) [µM]	GI50 (UO-31 renal) [µM]	GI50 (HOP-92 NSCLC) [µM]
COc1cc2c(cc1OCCCN1CCN(CCCOc3cc4c(cc3OC)C(=O)N3CCC[C@H]3C=N4)CC1)C=CC(C)(C)O2	2.37	2.75		3.65	1.69	4.27	3.18	1.95	3.49	2.67	1.9	1.15	1.36	0.423	1.48	1.36	1.7	0.584	1.51	
O=c1cc(CNC2CCCC2)[nH]c(=O)[nH]1	> 100	> 100		> 100	> 100	> 100	> 100	> 100	> 100	> 100										
O=C1C=CC2CCC1C2 (centres undefined)	> 100	> 100		> 100	> 100	65.9	61.6	> 100	> 100	> 100										
C[N+]1(C)CCCC1C(=O)[O-] (centres undefined)	> 100	> 100	> 100	> 100		> 100		> 100	> 100	> 100										
FC(F)(F)c1ccc(-c2nc(-c3nc4cc(Cl)c(Cl)cc4[nH]3)c3ccccn23)cc1	79.1		28.7	> 100		> 100	> 100	> 100		> 100	3.56	4.58			10.6	3.74	> 100	> 100		2.97
Cc1ccc(S(=O)(=O)c2scc(-c3ccccc3)c2C)cc1		> 100	> 100	> 100	> 100	> 100		> 100	> 100	> 100										
COC(=O)[C@H](Cc1ccccc1)NC(=O)c1ccc(CNC(=O)/C=C/c2ccc(-c3ccccc3)cc2)cc1	> 100	> 100	> 100	> 100	> 100		> 100	> 100	> 100	> 100										
COc1ccc(-c2nc(N)c(C#N)c3c2CCS(=O)(=O)c2ccc(C)cc2-3)cc1OC	62.5		> 100	> 100		25.1	> 100	> 100	> 100	> 100										
COC(=O)C(=O)C(C(=O)Nc1cccc(C)c1C)C1Sc2ccccc2NC1=O (centres undefined)	> 25	> 25	> 25	24		> 25	> 25	> 25	> 25	> 25										
c1csc(-c2ccc(-c3ccc(-c4ccc(-c5cccs5)s4)s3)s2)c1	> 100	> 100	> 100		> 100		> 100	> 100	> 100	> 100										
COC(=O)N1CC2(CO)C3CC=C(C(=O)Nc4ccccc4Br)C2C1C3Br (centres undefined)	> 50	> 50	> 50	> 50	> 50		> 50		> 50	> 50										
C=C1C(=O)OC2/C=C(\C)C(OC(C)=O)C3OC3C(C)(O)CC(OC(=O)/C(C)=C/C)C12 (centres undefined)	32.1	34.9	23.5	21		3.37	32.3	47.4	23	15.8										
O=C1C(N2CCCC2)=CC(=O)c2c(O)c(N3CCCC3)c(Cl)c(O)c21	> 10	> 10	> 10	> 10	> 10	> 10		> 10	> 10	> 10										
Nc1nc2c(=O)c3ccccc3sc2s1	> 100	> 100	> 100		> 100		> 100	> 100	> 100	> 100										
C1=C\SS/C=C\SS/C=C\SS/C=C\SS/1	> 100	> 100	> 100	> 100	> 100	84.4	> 100	> 100	> 100											
COc1cccc2c1OC1c3ccccc3OCC1C2 (centres undefined)	> 100	> 100		> 100	> 100		> 100	> 100	> 100	> 100										
CCOC(=O)c1cnc(-n2[nH]c(C)c(CCO)c2=O)[nH]c1=O		> 100	> 100	> 100	> 100		> 100	> 100	> 100	> 100										
Nc1nc(N)c2ncn(CC3CCC(CO)C3)c2n1 (centres undefined)	> 100	> 100	> 100		> 100		> 100	> 100	> 100	> 100										
C=CCNC(=S)Nc1sc2c(c1C(=O)OCC)CC(C)CC2 (centres undefined)		65.9	> 100	45.8	45.4	46.4	76	82.8	56.3	50.1										
O=S(=O)(Oc1ccc2oc3ccccc3c2c1-c1c(OS(=O)(=O)C(F)(F)F)ccc2oc3ccccc3c12)C(F)(F)F	> 100	> 100	> 100		> 100	> 100	> 100		> 100	> 100										
O=C1c2ccccc2C(=O)N1n1c(Cc2ccccc2)n[nH]c1=O	> 100	> 100	> 100	> 100	> 100		> 100	> 100	> 100	> 100										
CCOC(=O)c1cn(-c2ccccc2)c(=S)n2c1nc1ccccc12	> 100	> 100	47.7		> 100		> 100	> 100		> 100										
CCC(C)[C@H](NC(=O)[C@H](Cc1ccccc1)NC(=O)N(CC)c1ccccc1)C(=O)N[C@@H](CC(C)C)C(=O)OC (some centres undefined)	> 100	> 100	> 100	> 100	> 100		> 100	> 100	67.2	> 100										
